This passage reports inhibition and IC50 results from patent US20120184542A1, “PYRIDO PYRIMIDINES” (priority 2011, published 2012).

Test [1] addresses T1, Human DYRK1B (Homo sapiens, UniProt Q9Y463).
T1 construct: purchased Invitrogen PR8350B (former PV4649)
Kind of test: DYRK1B Kinase TR-FRET (IMAP-Tb) Assay. Format: biochemical. To be noted: for IC50: TR-FRET (IMAP-Tb), ATP 70 μM, 37° C. 60 minutes.

The target in test [2] is T2, Human DYRK1A (Homo sapiens, UniProt Q13627).
T2 construct: purchased Invitrogen PV3997
Kind of test: DYRK1A Kinase TR-FRET (IMAP-Tb) Assay. To be noted: for IC50: TR-FRET (IMAP-Tb), ATP 70 μM, 37° C. 60 minutes, read-out: Enzyme IC50 (μM) DYRK1A. Format: biochemical. The text has this:
The kinase TR-FRET (IMAP-Tb) assay uses a fluorescence labeled substrate peptide in the kinase reaction. Upon phosphorylation by the kinase, phosphopeptide is produced, which will be detected by the binding solution provided in IMAP TR-FRET binding kit. After the completion of the kinase reaction, the reaction will be stopped by adding the binding solution containing terbium tracer. This tracer is immobilized on the surface of the IMAP beads, which also contain metal ions on the beads that bind to the phospho-groups of the products. Thus the phosphorylated product of the reaction can enter into close proximity to the tracer, producing resonance energy transfer. Due to the long lifetime of terbium (Tb) fluorescence the detection can be run in time resolved mode, which virtually eliminates fluorescence interference from assay components or compounds.
The TR-FRET signal measurement from this assay, given as an IC50 measurement, is a measure of a test compound's ability to interfere with the phosphorylation of the peptide substrate, that is it inhibits the phosphorylation of the substrate peptide by DYRK1A, and is thus a measure of the test compound's ability to inhibit the activity of DYRK1A.
• 1. Human DYRK1A: from Invitrogen. Part #PV3997 • 2. Substrate Peptide: […] • 3. IMAP TR-FRET IPP Explorer Kit: from Molecular Devices. Part #R8157 • 4. Kinase Assay Buffer (KAB): 10 mM HEPES pH 7.0, 50 mM NaCl, 5 mM MgCl2, 1 mM DTT, 1 mM NaVO4, 200 μg/mL BSA (0.02%) • 5. Assay Plate: Remp polypropylene clear 384-well microplate. […] Detection Plate: Costa black 384-well microplate.
• 1. Transfer 1.5 μL of 20× compound solution to each well of an assay plate. • 2. Add to each well 22.5 μL of KAB Buffer. • 3. Add to each well 3 μL of the solution of DYRK1A and ATP. […] Add to each well 3 μL of the substrate peptide. The assay concentration is 1.0 μM • 5. Incubate the assay plates at 37° C. for 60 minutes. • 6. Add 18 μL of Detection Solution (1:800 diluted Progress bead stock, 1:400 diluted Tb stock, 80% Buffer A, and 20% Buffer B) into each well of detection plates. • 7. Transfer 6 μL of assay solution from the assay plate to the detection plate. • 8. Shake detection plates for 30 minutes. • 9. Read plates in Envision with wavelength set at excitation 340 nm for Tb, emission 490 nm, and […].
On the technique in general: Time-resolved FRET reads energy transfer from a long-lived donor to a nearby acceptor.

Where [3] appears, read: read-out: Enzyme IC50 (μM) DYRK1B.

Structures can show the parent of a compound that is named as a salt. Where two headings read alike, the source gives them in different places.

T1 sequence (Q9Y463 whole entry): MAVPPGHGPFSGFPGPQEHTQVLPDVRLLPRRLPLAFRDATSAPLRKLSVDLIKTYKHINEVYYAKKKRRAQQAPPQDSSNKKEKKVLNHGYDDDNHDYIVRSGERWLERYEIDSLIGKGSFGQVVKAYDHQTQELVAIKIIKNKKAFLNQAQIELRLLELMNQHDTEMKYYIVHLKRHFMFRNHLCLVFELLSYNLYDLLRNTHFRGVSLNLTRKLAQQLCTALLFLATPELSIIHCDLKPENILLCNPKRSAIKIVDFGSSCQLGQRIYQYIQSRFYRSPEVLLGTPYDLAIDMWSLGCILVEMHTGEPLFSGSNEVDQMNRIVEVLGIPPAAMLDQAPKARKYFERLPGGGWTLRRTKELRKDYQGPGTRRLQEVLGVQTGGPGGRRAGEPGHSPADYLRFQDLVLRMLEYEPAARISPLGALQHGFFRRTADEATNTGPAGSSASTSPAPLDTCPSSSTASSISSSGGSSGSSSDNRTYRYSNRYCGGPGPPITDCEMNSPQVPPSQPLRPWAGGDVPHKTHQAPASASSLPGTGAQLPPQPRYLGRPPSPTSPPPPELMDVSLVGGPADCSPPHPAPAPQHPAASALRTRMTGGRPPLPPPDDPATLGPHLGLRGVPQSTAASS

Consider `CC(NC(=O)c1ccc(Cl)c(NC(=O)c2cc3cnc(N4CCOCC4)nc3[nH]c2=O)c1)c1cccc(Cl)c1` (racemic) [Example 143, 2-Morpholin-4-yl-7-oxo-7,8-dihydro-pyrido[2,3-d]pyrimidine-6-carboxylic acid {2-chloro-5-[1-(3-chloro-phenyl)-ethylcarbamoyl]-phenyl}-amide], for which the inhibition at 10 µM in test [1] (read-out: % inhibition of DYRK1B at 10 μM test compound concentration) came out at 24%; in test [2] (read-out: % inhibition of DYRK1A at 10 μM test compound concentration) it was 57%.

On to `COc1ncc2cc(C(=O)Nc3cc(C(=O)O)ccc3Cl)c(=O)[nH]c2n1` [Example 22, 4-Chloro-3-[(2-methoxy-7-oxo-7,8-dihydro-pyrido[2,3-d]pyrimidine-6-carbonyl)-amino]-benzoic acid], for which the IC50 in test [1] (setting [3]) was 2.73 µM; in test [2], 0.601 µM.

Turning to `COc1ncc2cc(C(=O)Nc3cc(C(=O)OCc4ccccc4)ccc3C)c(=O)[nH]c2n1` [Example 26, 3-[(2-Methoxy-7-oxo-7,8-dihydro-pyrido[2,3-d]pyrimidine-6-carbonyl)-amino]-4-methyl-benzoic acid benzyl ester], the IC50 amounted to 0.496 µM in test [1] (setting [3]) and 0.323 µM in test [2].

Take `COc1ncc2cc(C(=O)Nc3cc(C(=O)NCc4ccccc4)ccc3C)c(=O)[nH]c2n1` [Example 27, 2-Methoxy-7-oxo-7,8-dihydro-pyrido[2,3-d]pyrimidine-6-carboxylic acid (5-benzylcarbamoyl-2-methyl-phenyl)-amide]: the IC50 was determined as 2 µM in test [1] (setting [3]) and 0.376 µM in test [2].

For the molecule `COC(=O)c1ccc(C)c(NC(=O)c2cc3cnc(N4CCOCC4)nc3[nH]c2=O)c1` [Example 29, 4-Methyl-3-[(2-morpholin-4-yl-7-oxo-7,8-dihydro-pyrido[2,3-d]pyrimidine-6-carbonyl)-amino]-benzoic acid methyl ester], the results for the IC50 in test [1] (setting [3]) and in test [2] were 0.12 µM and 0.0859 µM, respectively.

On to `COC(=O)c1ccc(Cl)c(NC(=O)c2cc3cnc(N4CCOCC4)nc3[nH]c2=O)c1` [Example 33, 4-Chloro-3-[(2-morpholin-4-yl-7-oxo-7,8-dihydro-pyrido[2,3-d]pyrimidine-6-carbonyl)-amino]-benzoic acid methyl ester], for which the IC50 worked out at 0.128 µM in test [1] (setting [3]) and 0.095 µM in test [2].

With `COC(=O)c1ccc(Cl)c(NC(=O)c2cc3cnc(N4CCCCC4)nc3[nH]c2=O)c1` [Example 34, 4-Chloro-3-[(7-oxo-2-piperidin-1-yl-7,8-dihydro-pyrido[2,3-d]pyrimidine-6-carbonyl)-amino]-benzoic acid methyl ester], the IC50 amounted to 0.06 µM in test [1] (setting [3]) and 0.05 µM in test [2].

For the molecule `COC(=O)c1ccc(Cl)c(NC(=O)c2cc3cnc(N4CCNCC4)nc3[nH]c2=O)c1` [Example 37, 4-Chloro-3-[(7-oxo-2-piperazin-1-yl-7,8-dihydro-pyrido[2,3-d]pyrimidine-6-carbonyl)-amino]-benzoic acid methyl ester], the figures for the IC50 in test [1] (setting [3]) and in test [2] were 0.405 µM and 0.468 µM, respectively.

As to `CCOCCN(CCOCC)c1ncc2cc(C(=O)Nc3cc(C(=O)OC)ccc3Cl)c(=O)[nH]c2n1` [Example 40, 3-({2-[Bis-(2-ethoxy-ethyl)-amino]-7-oxo-7,8-dihydro-pyrido[2,3-d]pyrimidine-6-carbonyl}-amino)-4-chloro-benzoic acid methyl ester], the IC50 in test [1] (setting [3]) is 0.22 µM; in test [2], 0.208 µM.

Molecule `COc1ncc2cc(C(=O)Nc3cc(C(=O)Nc4ccccc4)ccc3Cl)c(=O)[nH]c2n1` [Example 49, 2-Methoxy-7-oxo-7,8-dihydro-pyrido[2,3-d]pyrimidine-6-carboxylic acid (2-chloro-5-phenylcarbamoyl-phenyl)-amide] had an IC50 in test [1] (Enzyme IC50 (μM) DYRK1B) of 2.97 µM.

`COc1ncc2cc(C(=O)Nc3cc(C(=O)N(C)Cc4cccc(Cl)c4)ccc3Cl)c(=O)[nH]c2n1` [Example 65, 2-Methoxy-7-oxo-7,8-dihydro-pyrido[2,3-d]pyrimidine-6-carboxylic acid {2-chloro-5-[(3-chloro-benzyl)-methyl-carbamoyl]-phenyl}-amide] yielded an IC50 in test [1] (Enzyme IC50 (μM) DYRK1B) of 0.586 µM.

In turn, `COc1ncc2cc(C(=O)Nc3cc(C(=O)NCCc4cccc(Cl)c4)ccc3Cl)c(=O)[nH]c2n1` [Example 71, 2-Methoxy-7-oxo-7,8-dihydro-pyrido[2,3-d]pyrimidine-6-carboxylic acid {2-chloro-5-[2-(3-chloro-phenyl)-ethylcarbamoyl]-phenyl}-amide] displayed an IC50 in test [1] (Enzyme IC50 (μM) DYRK1B) of 0.135 µM.

As for `Cc1ncc2cc(C(=O)Nc3cc(C(=O)NC(CCN)c4ccccc4)ccc3Cl)c(=O)[nH]c2n1` (centres unmarked) [Example 112, N-(5-(3-Amino-1-phenylpropylcarbamoyl)-2-chlorophenyl)-2-methyl-7-oxo-7,8-dihydropyrido[2,3-d]pyrimidine-6-carboxamide hydrochloride], in test [1] (Enzyme IC50 (μM) DYRK1B), the IC50 stood at 0.018 µM.

For the molecule `CN1CCN(CCCNc2ncc3cc(C(=O)Nc4cc(C(=O)NC(CCN)c5ccccc5)ccc4Cl)c(=O)[nH]c3n2)CC1` (centres unmarked) [Example 120, N-(5-(3-Amino-1-phenylpropylcarbamoyl)-2-chlorophenyl)-2-(3-(4-methylpiperazin-1-yl)propylamino)-7-oxo-7,8-dihydropyrido[2,3-d]pyrimidine-6-carboxamide], in test [1] (Enzyme IC50 (μM) DYRK1B), the IC50 was less than 0.0046 µM.

Take `COc1ncc2cc(C(=O)Nc3cc(C(=O)N[C@@H](CCN)c4cccc(Cl)c4)ccc3Cl)c(=O)[nH]c2n1` [Example 136, 2-Methoxy-7-oxo-7,8-dihydro-pyrido[2,3-d]pyrimidine-6-carboxylic acid {5-[(S)-3-amino-1-(3-chloro-phenyl)-propylcarbamoyl]-2-chloro-phenyl}-amide]: half-maximal inhibition in test [1] (Enzyme IC50 (μM) DYRK1B) (IC50) required 2.55 µM.

`Cc1ncc2cc(C(=O)Nc3cc(C(=O)N[C@H](CCN)c4ccccc4)ccc3Cl)c(=O)[nH]c2n1` [Example 168, (R)—N-(5-(3-Amino-1-phenylpropylcarbamoyl)-2-chlorophenyl)-2-methyl-7-oxo-7,8-dihydropyrido[2,3-d]pyrimidine-6-carboxamide hydrochloride]: the IC50 in test [1] (Enzyme IC50 (μM) DYRK1B) was less than 0.0046 µM.

Molecule `COc1nc(C)c2cc(C(=O)Nc3cc(C(=O)NC(CCN)c4ccccc4)ccc3Cl)c(=O)[nH]c2n1` (centres unmarked) [Example 169, N-(5-(3-Amino-1-phenylpropylcarbamoyl)-2-chlorophenyl)-2-methoxy-4-methyl-7-oxo-7,8-dihydropyrido[2,3-d]pyrimidine-6-carboxamide2,2,2-trifluoroacetate] displayed an IC50 in test [1] (Enzyme IC50 (μM) DYRK1B) of 0.101 µM.

With `COc1ncc2cc(C(=O)Nc3cc(C(=O)NC(CCCCN)c4ccccc4)ccc3Cl)c(=O)[nH]c2n1` (centres unmarked) [Example 186, N-(5-(5-Amino-1-phenylpentylcarbamoyl)-2-chlorophenyl)-2-methoxy-7-oxo-7,8-dihydropyrido[2,3-d]pyrimidine-6-carboxamide], in test [1] (Enzyme IC50 (μM) DYRK1B), 1.01 µM corresponded to half-maximal inhibition (IC50).

On to `COc1ncc2cc(C(=O)Nc3cc(C(=O)NC(CCCN)c4ccccc4)ccc3Cl)c(=O)[nH]c2n1` (centres unmarked) [Example 189, N-(5-(4-Amino-1-phenylbutylcarbamoyl)-2-chlorophenyl)-2-methoxy-7-oxo-7,8-dihydropyrido[2,3-d]pyrimidine-6-carboxamide], for which inhibition in test [1] (Enzyme IC50 (μM) DYRK1B) was half-maximal at 0.0214 µM (IC50).

Molecule `COc1ncc2cc(C(=O)Nc3cc(C(=O)NC(CCN)C4CCCCC4)ccc3Cl)c(=O)[nH]c2n1` (centres unmarked) [Example 193, N-(5-(3-Amino-1-cyclohexylpropylcarbamoyl)-2-chlorophenyl)-2-methoxy-7-oxo-7,8-dihydropyrido[2,3-d]pyrimidine-6-carboxamide 2,2,2-trifluoroacetate] came in with an IC50 in test [1] (Enzyme IC50 (μM) DYRK1B) of 0.615 µM.

A word on the IC50: it is the midpoint of a concentration-inhibition curve.
